Tests used:
[1] = UV-Vis spectra and calibration curve of FMR-DAAs (excitation/emission maxima, absorptivity); type: physicochemical; design: Absorptivity (ε): unit not given here; conditions: for Max. λEm / Max. λEx: PBS (pH 7.4) containing 50% glycerol, scan range 350 to 800 nm; for Absorptivity (ε): PBS (pH 7.4), Beer's Law
Experimental: The excitation and emission wavelengths of FMR-DAAs were measured by SpectraMax M2 plate reader using disposable cuvette (polymethyl methacrylate). UV-Vis spectra of FMR-DAAs were measured by scanning within a range from 350 to 800 nm with an increment of 1 nm. The wavelength at maximum absorbance (Ex) and emission (Em) of FMR-DAAs were recorded.
For plotting calibration curves, FMR-DAAs (100 mM stock solution, DMSO) were diluted into 1×PBS (pH 7.4) and the corresponding A. absorbance of FMR-DAAs was measured as a function of concentration (0.1, 0.05, 0.025 and 0.0125 mM). The absorptivity was calculated as described by Beer's Law. The spectra of molecular rotor designs are illustrated in FIG. 7 (panels (i)-(vi)).

[2] = Measurement of viscosity sensitivity of FMR-DAAs in PBS-glycerol; type: physicochemical; conditions: free probe 0.1 mM in 1×PBS containing 0-80% glycerol, pH 7.4
Experimental: For free FMR-DAAs measurement, FMR-DAAs (100 mM stock solution, DMSO) was diluted in PBS-glycerol solution (1×PBS containing 0%, 20%, 40%, 50%, 60% and 80% glycerol, pH 7.4) to a final concentration of 0.1 mM. The solutions were transferred into 96-well micro-plate and the fluorescence was measure at corresponding Em wavelength mentioned above using SpectraMax M2 plate reader (corresponding Ex wavelength was used). The viscosity sensitivity was calculated using the following equation, where r is viscosity of the solvents, I is the emission intensity of the FMR-DAAs, C is a constant depending on the temperature, and x is the viscosity sensitivity (Zhou el, EJOC, 2011, 4773). The Ig, 50%/Iw value represents the ratio of fluorescent intensity of the 50% glycerol sample to that of the 0% glycerol sample.

[3] = Quantum yield measurement (fluorescein standard); type: physicochemical; conditions: PBS (pH 7.4) containing 50% glycerol; fluorescein as standard
[4] = Measurement of thermal stability of FMR-DAAs; type: physicochemical; conditions: PBS (pH 7.4), 24-hours incubation at 60° C.
Experimental: FMR-DAAs (100 mM stock solution, DMSO) was diluted with 1×PBS (pH7.4) to a final concentration of 0.05 mM. The FMR-DAAs solution was then incubated at 60° C. and kept from light exposure. […]

S. aureus PBP4 [5] = molecular target: T1, S. aureus PBP4 (Staphylococcus aureus, UniProt P72355); assay: In vitro real-time D,D-transpeptidation assay using Rf470 and diacetyl-L-lysine-D-alanine-D-alanine substrate; type: biochemical; conditions: for Effect on initial rate of fluorescence increase (PBP4 enzyme reaction): antibiotics 0.1 equiv. to the substrate; for Effect of added antibiotic on D,D-transpeptidation activity (fluorescence signal increase): antibiotic added to Rf470/substrate/PBP4 reaction
T1 sequence (P72355 25-431): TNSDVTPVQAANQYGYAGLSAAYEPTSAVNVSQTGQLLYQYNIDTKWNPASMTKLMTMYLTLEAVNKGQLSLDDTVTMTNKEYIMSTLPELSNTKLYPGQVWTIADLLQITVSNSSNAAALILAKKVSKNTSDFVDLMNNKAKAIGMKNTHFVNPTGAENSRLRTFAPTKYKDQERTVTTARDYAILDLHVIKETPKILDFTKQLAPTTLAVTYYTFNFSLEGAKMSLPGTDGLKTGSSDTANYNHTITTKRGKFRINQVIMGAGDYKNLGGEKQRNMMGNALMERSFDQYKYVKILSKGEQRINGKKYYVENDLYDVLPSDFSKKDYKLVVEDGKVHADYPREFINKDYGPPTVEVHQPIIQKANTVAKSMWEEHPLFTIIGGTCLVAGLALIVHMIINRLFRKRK
Excerpt: FIG. 12A depicts an exemplary scheme for the assay procedure for in vitro D,D-transpeptidation assays using Rf470 and isolated S. aureus PBP4.
FIG. 12E depicts screening of antibiotic effect on S. aureus PBP4 activity. Kanamycin and Chloramphenicol: ribosome activity inhibitors; Piperacillin, Ampicillin, Penicillin G, Carbenicillin and Cefoxitin are β-lactam antibiotics. A 1:10 ratio of antibiotics to the substrate was used.
We took advantage of the fact that FMR-DAAs are fluorogenic probes that fluoresce upon PG incorporation to develop a continuous, spectrophotometric assay to monitor the formation of transpeptidation product without the need of quenching and purification. The components of the assay included FMR-DAA probes as the fluorescence reporter, synthetic diacetyl-L-lysine-D-alanine-D-alanine as the substrate (acyl donor) and Staphylococcus aureus PBP4 enzyme. S. aureus PBP4 is known to have D,D-transpeptidation activity responsible for the highly cross-linked PG layer in staphylococci, as well as β-lactamase activity to degrade penicillin-like antibiotics.
Rf470, the synthetic substrate and S. aureus PBP4 were incubated in a 96-well plate and the emission fluorescence was measured overtime using a plate reader (5-minute interval, 1 hour in total, FIG. 12A). […] The formation of cross-linked product was confirmed by reverse-phase HPLC and high-resolution mass spectrometry (FIG. 12C, D).
(§1) We further evaluated the utility of this assay for in vitro high-throughput screening for antibiotics. We tested various antibiotics (0.1 equiv. to the substrate) and measured the initial rate of fluorescence increase (FIG. 12E). […] To further confirm the inhibitory effect of these β-lactams toward S. aureus PBP4, we performed a Nitrocefin assay, which tests PBP's β-lactamase activity, in the presence of the antibiotics. […] We also note that this assay can be conducted in an end-point manner, providing an efficient way to test a large number of samples since only a single measurement is required per sample. End-point assays potentially enable high-throughput applications for drug screening and transpeptidation reaction studies.

S. aureus PBP4 [6] = molecular target: T1, S. aureus PBP4; assay: Nitrocefin assay of PBP4 β-lactamase activity in the presence of antibiotics; type: biochemical; conditions: in the presence of the antibiotic
Excerpt: FIG. 12F depicts β-lactamase activity of S. aureus PBP4 in the presence of antibiotics. Nitrocefin degradation by PBP4 results in an increase of absorbance at 500 nm, which is used to measure β-lactamase activity. Low activity stands for a strong inhibition effect of the antibiotics toward PBP4, and vice versa. Values are normalized to the “no antibiotic” sample.
as §1

[7] = system: LdtA, encoded by V. cholerae vc1268; assay: In vitro FMR-DAA assay with L,D-transpeptidase and synthetic tetrapeptide (diacyl-L-Ala-D-Glu-L-Lys-D-Ala); type: biochemical; conditions: Rf470 + LdtA + synthetic tetrapeptide
Excerpt: (§2) In addition to PBPs, we tested the in vitro assay in other classes of transpeptidases: L,D-transpeptidase (Ldts) and Sortases. It is known that LdtA, encoded by V. cholerae vc1268, is responsible for 3′-3′ cross-linkage formation. […] On the other hand, S. aureus Sortase A (SrtA) is responsible for anchoring surface proteins to PG through a sequence-specific transpeptidation reaction. It recognizes a conserved protein LPXTG motif, and cross-links it with PG pentaglycine in S. aureus. […] Control experiments in the absence of the substrate led to no signal change.

[8] = molecular target: S. aureus Sortase A (SrtA) (Staphylococcus aureus, UniProt Q2FV99); assay: In vitro FMR-DAA assay with Sortase A and synthetic pentapeptide motif (LPETG); type: biochemical
S. aureus Sortase A (SrtA), sequence (Q2FV99 whole entry): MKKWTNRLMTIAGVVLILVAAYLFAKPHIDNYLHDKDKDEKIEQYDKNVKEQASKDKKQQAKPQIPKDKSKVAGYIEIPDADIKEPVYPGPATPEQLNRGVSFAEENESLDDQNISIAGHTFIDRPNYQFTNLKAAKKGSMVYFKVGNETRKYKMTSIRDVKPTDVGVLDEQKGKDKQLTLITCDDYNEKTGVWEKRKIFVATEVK
Excerpt: as §2

bacterial PG = assay: Wash-free labeling of bacterial PG with FMR-probe-D-Lys conjugates, fluorescence microscopy; type: cell-based
Excerpt: FIG. 3E depicts exemplary labeling of bacterial PG with HADA probe (panel (i)) and FMR-probe-D-Lys conjugates having the FMR probe moiety of formula (I), wherein R^1 consists of a —CN moiety (denoted as “Rot1DL” (panel (ii))) without washing prior to fluorescence. Compared to conventional FDAAs (e.g., HADA), FMR-DAAs eliminate the need to wash excess probe.
The presence of the carboxylic acid provides a site for covalent coupling of the FMR-probe to an available amino group on a D-amino acid backbone, such as D-amino-Ala or D-Lys. As FMR-probes having R^1 consist of a cyano moiety provide slight affinity for bacterial membranes, result in low levels of nonspecific labeling and some instability of the α,β-unsaturated malononitrile moiety under typical experimental conditions, such FMR-probes are less preferred for use. In such cases, FMR-probes having R^1 consisting of a carboxylic acid can prevent non-specific membrane binding and increase stability of the probe.

| SMILES | Max. λEm [1] | Max. λEx [1] | Absorptivity (ε) [1] | Viscosity sensitivity (χ) [2] | Thermo-stability (signal retention of absorbance vs initial value) [4] | Effect on initial rate of fluorescence increase (PBP4 enzyme reaction) (S. aureus PBP4 [5]) | other results |
| --- | --- | --- | --- | --- | --- | --- | --- |
| N#CC(=Cc1ccc(-c2ccc3c(c2)CCCN3CCC(=O)O)s1)C(=O)NCCCCC(N)C(=O)O (stereo in doubt) [Rf490, (E)-N^6-(3-(5-(1-(2-carboxyethyl)-1,2,3,4-tetrahydroquinolin-6-yl)thiophen-2-yl)-2-cyanoacryloyl)-L-lysine] | 660 | 490 | 25409 | 0.67 ± 0.003 | 96.9 ± 9.8% | – | Red-shift in Max. λEX compared to Rf470 [1]: 20 nm; Quantum Yield (ϕ) [3]: 0.035 |
| CC1(C)S[C@@H]2[C@H](NC(=O)[C@H](N)c3ccccc3)C(=O)N2[C@H]1C(=O)O [Ampicillin] | – | – | – | – | – | partial inhibition | Inhibition of PBP4 β-lactamase activity (in words) (S. aureus PBP4 [6]): did not inhibit PBP4s β-lactamase activity effectively |
| CC1(C)S[C@@H]2[C@H](NC(=O)C(C(=O)O)c3ccccc3)C(=O)N2[C@H]1C(=O)O (some centres unmarked) [Carbenicillin] | – | – | – | – | – | inhibited the enzyme reaction almost completely | – |
| CO[C@@]1(NC(=O)Cc2cccs2)C(=O)N2C(C(=O)O)=C(COC(N)=O)CS[C@@H]21 [Cefoxitin] | – | – | – | – | – | inhibited the enzyme reaction almost completely | Effect of added antibiotic on D,D-transpeptidation activity (fluorescence signal increase) (S. aureus PBP4 [5]): total inhibition |
| O=C(N[C@H](CO)[C@H](O)c1ccc([N+](=O)[O-])cc1)C(Cl)Cl [Chloramphenicol] | – | – | – | – | – | – | Effect of added antibiotic on D,D-transpeptidation activity (fluorescence signal increase) (S. aureus PBP4 [5]): comparable to the non-treated sample |
| NC(CNC(=O)c1cc2ccc(O)cc2oc1=O)C(=O)O (centres unmarked) [HADA, reference compound] | 450 | 400 | 109538 | 0.025 ± 0.003 | 80.0 ± 1.1% | – | – |
| CC1(C)S[C@@H]2[C@H](NC(=O)Cc3ccccc3)C(=O)N2[C@H]1C(=O)O [Penicillin G] | – | – | – | – | – | partial inhibition | – |
| CCN1CCN(C(=O)N[C@@H](C(=O)N[C@@H]2C(=O)N3[C@@H]2SC(C)(C)[C@@H]3C(=O)O)c2ccccc2)C(=O)C1=O [Piperacillin] | – | – | – | – | – | did not have a significant effect | Inhibition of PBP4 β-lactamase activity (in words) (S. aureus PBP4 [6]): did not inhibit PBP4s β-lactamase activity effectively |
| N#C/C(=C\c1ccc2c(c1)CCCN2CCC(=O)NCCCC[C@@H](N)C(=O)O)C(=O)O [Rf420, (E)-N6-(3-(6-(2-carboxy-2-cyanovinyl)-3,4-dihydroquinolin-1(2H)-yl)propanoyl)-D-lysine] | 490 | 420 | 19761 | 0.683 ± 0.013 | 99.8 ± 1.2% | – | Quantum Yield (ϕ) [3]: 0.012 |
| N#C/C(=C\c1ccc(-c2ccc3c(c2)CCCN3CCC(=O)NCCCC[C@@H](N)C(=O)O)s1)C(=O)O [Rf470, (E)-N6-(3-(6-(5-(2-carboxy-2-cyanovinyl)thiophen-2-yl)-3,4-dihydroquinolin-1(2H)-yl)propanoyl)-D-lysine] | 640 | 470 | 33106 | 0.642 ± 0.022 | 99.4 ± 1.4% | – | Quantum Yield (ϕ) [3]: 0.042; Probe fluorescence intensity over time (D,D-transpeptidation signal) (S. aureus PBP4 [5]; probe + synthetic substrate + S. aureus PBP4, 96-well plate, 5-minute interval, 1 hour): increase in fluorescence intensity overtime; Fluorescence signal over time with LdtA [7]: time-lapse increase of fluorescence signal; Rf470 signal over time with Sortase A [8]: increase of Rf470 signal over time |
| N#CC(C#N)=Cc1ccc2c(c1)CCCN2CCC(=O)NCCCC[C@@H](N)C(=O)O [Rotor No. 1, N6-(3-(6-(2,2-dicyanovinyl)-3,4-dihydroquinolin-1(2H)-yl)propanoyl)-D-lysine] | – | – | – | – | – | – | Non-specific affinity to other cellular structures / membranes (bacterial PG; FIG. 3G, no washing): low non-specific affinity to other cellular structures; Incorporation into PG sacculi (bacterial PG; labeled bacterial PG, FIG. 3F): covalently incorporated into PG sacculi |
